We go through four compounds from US9302993B2, “8-hydroxy quinoline derivatives” (PRANA BIOTECHNOLOGY LIMITED, priority 2002, dated 2016).

Molecules are shown by their SMILES. Values joined by “and” are separate entries in the source; they are usually repeats but may differ in a detail not shown here. Identical values can stand only once. Like-named read-outs stand apart in the source and are kept apart here.

One data set concerns Neuronal cortical cells. Description: Assay for test compound cytoxicity, MTS (Assay 3(d)). It is filed as cell-based, mouse. Conditions: BL6J×129sv, mouse, 4 days.
In data set [1] the test system is Neuronal cortical cells treated with Aβ1-42. Description: Assay for Aβ neurotoxicity and Aβ neuroprotection (Assay 3(c)). It is filed as cell-based, mouse. The conditions noted are these: 20 uM Aβ1-42, 4 days, MTS.
Another data set relates to APP2576 transgenic mouse. As to the kind of experiment: Effect of administration of test compounds on Aβ deposits in transgenic animals (Assay 11). It is filed as in vivo. On the set-up: concentration or dose not given beside the values. Conditions: transgenic mouse brains; for Insoluble fraction. % change compared with control.: insoluble Aβ; for Soluble fraction. % change compared with control.: soluble Aβ.

Data set [2] can be described thus: Blood brain barrier penetration, brain perfusion (Assay 14). It is filed as in vivo. The conditions noted are these: rat brain perfusion, 50 μM, 1.5 minutes.
Method: Assay 14. Blood Brain Barrier Penetration
A trace amount of ^14C-sucrose was added to each stock infusion solution (approx 0.01 μCi/mL) to act as Blood-Brain Barrier (BBB)-impermeable marker in order to assess the integrity of the BBB during each perfusion and to estimate the volume of the residual vascular space (RVS) in samples of brain tissue (ie: the volume of fluid remaining inside the lumen of blood vessels at the end of each perfusion).
The right common carotid artery was surgically exposed and cannulated for perfusion of the cerebral circulation. The right external carotid artery (which supplies tissues outside the skull) was then ligated distal to its bifurcation from the right common carotid artery so that all of the infusion solution would pass into the brain via the remaining right internal carotid artery. The heart was then exposed and transected immediately prior to the commencement of the infusion. […] The infusion cannula initially contained a 0.5 mL pre-wash of heparinised PBS (10 IU/ml) that acts to flush blood vessels and to prevent blood from clotting and blocking small vessels.
After 1.5 minutes, the infusion pump automatically stopped, the cannula was withdrawn from the carotid artery and a sample of the infusion solution (1-1.5 mL) was then collected from the tip of the infusion cannula. The brain was then dissected free and divided into 3 parts; the right hemisphere together with the right midbrain, the left hemisphere together with the left midbrain and the hindbrain (cerebellum, pons and brainstem). Only the right part of the brain was used for subsequent measurements because perfusion via the right internal carotid artery preferentially supplies the right hemisphere and right midbrain (the left hemisphere and hindbrain receive a variable collateral perfusion). The brain tissue samples from each animal were frozen at −30° C., homogenized and weighed aliquots analysed by LC-MS to give total brain concentration. The analysis was carried out using the Micromass Triple Quad instrument. The mobile phase consisted of an acetonitrile/water gradient (containing 0.05% Formic acid) and the column was a Phenomenex Luna CN.
Small aliquots from each brain tissue sample and the corresponding infusion solution were analysed by liquid scintillation counting to determine the level of ^14C-sucrose. The residual vascular space (RVS) in each brain tissue sample was calculated by dividing the measured concentration of sucrose in brain tissue (dpm/mg) by its concentration in the corresponding infusion solution (dpm/μL). This is the volume of fluid that remains inside blood vessels at the end of each perfusion. […]
A total of 5-6 brain perfusion experiments were performed for each of the test compounds and mean brain uptake ratios were calculated.
A short description of data set [3]: Pharmacokinetic profile, IV and oral (Assay 16). It is filed as in vivo. Conditions: rat; for BA (%): oral, calculated using the truncated AUC; for clearance: read-out: Cltotal (mL/min/Kg), total plasma clearance. The protocol: Assay 16. Pharmacokinetic Profile
• Intravenous infusion of PBT-1033; 2 mg/Kg (1 mL of a 0.5 mg/mL solution in 7.5% DMSO with 0.1 m Captisol in Citrate Buffer adjusted to pH 3.0) was administered over 5 minutes to 2 rats and arterial blood was sampled up to 24 hours. • Oral administration of PBT-1033; 30 mg/Kg (as a suspension in CMC-SSV*) via administered via oral gavage to 2 rats and arterial blood was sampled up to 26 hours. * Standard Suspending Vehicle—0.5% w/v Na-Carboxymethyl Cellulose (CMC), 5% v/v benzyl alcohol, 4% v/v Tween 80 in 0.9% NaCl. • Plasma concentrations of PBT-1033 were determined by LCMS (LOQ 3.7 nM). For rat 020710-D, an overlapping peak was present for PBT-1033.
[formula] [formula] [formula] Calculations: • CLtotal=total plasma clearance after IV administration • Vdβ=volume of distribution during the elimination phase after IV administration • BA=oral bioavailability • AUCIV=area under the plasma concentration versus time profile from time zero to infinity after IV administration • AUCoral=area under the plasma concentration versus time profile from time zero to infinity after oral administration • β=terminal elimination rate constant after IV administration • The results are shown in FIG. 4(a). (b) PBT-1038 • Intravenous infusion of PBT-1038; (0.5 mg/Kg in 7.5% DMSO in Citrate Buffer pH 3.0) was administered over 5 minutes to 2 rats and arterial blood was sampled up to 24 hours. • Oral administration of PBT-1038; (30 mg/Kg as a 0.05% CMC suspension) via administered via oral gavage to 2 rats and arterial blood was sampled up to 24 hours. • Plasma concentrations of PBT-1038 were determined by MS (LOQ 3 nM)
(c) PBT-1050 • Intravenous infusion of PBT-1050; (2 mg/Kg in 7.5% DMSO in Citrate Buffer pH 3.0) was administered over 5 minutes to 2 rats and arterial blood was sampled up to 24 hours. • Oral administration of PBT-1050; (30 mg/Kg as a 0.05% CMC suspension) was administered via oral gavage to 2 rats and arterial blood was sampled up to 24 hours. • Plasma concentrations of PBT-1050 were determined by MS (LOQ 3 nM)
(d) PBT-1051 • Intravenous infusion of PBT-1051; 2 mg/Kg (1 mL of a 0.6 mg/mL solution in 7.5% DMSO in Citrate Buffer pH 3.0) was administered over 5 minutes to 2 rats and arterial blood was sampled up to 24 hours. • Oral administration of PBT-1051; 30 mg/Kg (as a suspension in CMC-SSV*) was administered via oral gavage to 2 rats and arterial blood was sampled up to 24 hours. * Standard Suspending Vehicle—0.5% w/v Na-Carboxymethyl Cellulose (CMC), 5% v/v benzyl alcohol, 4% v/v Tween 80 in 0.9% NaCl. • Plasma concentrations of PBT-1051 were determined by LCMS (LOQ 3.7 nM)

[4] abbreviates: IV, individual rats, listed as PBT 1033, hydrochloride.
Setting [5] is: PO 30 mg/Kg, individual rats, listed as PBT 1033, hydrochloride, 30 mg/kg.
[6] abbreviates: plasma, po, 30 mg/kg, PO 30 mg/Kg, Mean ± SD.
[7] abbreviates: plasma, po, 30 mg/kg, PO 30 mg/Kg, Mean ± SD, read-out: Tmax (converted).
Where [8] appears, read: plasma, po, 30 mg/kg, PO 30 mg/Kg, individual rats.
[9] abbreviates: plasma, po, 30 mg/kg, PO 30 mg/Kg, individual rats, read-out: Tmax (converted).
[10] abbreviates: PO 30 mg/Kg, individual rats, listed as PBT 1050, 30 mg/kg.
Where [11] appears, read: IV, individual rats, listed as PBT 1051, hydrochloride.
Where [12] appears, read: PO 30 mg/Kg, individual rats, listed as PBT 1051, hydrochloride, 30 mg/kg.

In the case of `CN(C)Cc1ccc2c(Cl)cc(Cl)c(O)c2n1.Cl` [compound 1033, 5,7-Dichloro-2-dimethylaminomethyl-quinolin-8-ol hydrochloride], the “Test Compound Cytoxicity 1 uM” value in the data set on Neuronal cortical cells is 80. For the same compound, the “Test Compound Cytoxicity 10 uM” value in the data set on Neuronal cortical cells turned out to be 70. Besides, the “% inhibition Abeta toxicity” value in data set [1] was 38%. Moreover, the “Insoluble fraction. % change compared with control.” value (“Insoluble fraction. % change” for short) in the data set with APP2576 transgenic mouse was −29%. Further, the “Soluble fraction. % change compared with control.” value in the data set on APP2576 transgenic mouse was −37%. Besides, the “Uptake Ratio” value in data set [2] is more than 50%. In addition, the “VdB” value is 9.03 ± 3.07 L/kg in data set [3] (IV, Mean ± SD); 6.86 L/kg and 11.20 L/kg in data set [3] (setting [4]). Also, the “Cltotal (mL/min/Kg), total plasma clearance” value in data set [3] (setting [4]) came to 145.69 mL/min/kg. Further, the Cmax (usually the peak of the concentration-time curve) in data set [3] (setting [4]) was 0.7 µM and 2.48 µM; in data set [3] (setting [5]), 1.36 µM; in data set [3] (plasma, iv, 2 mg/kg, Mean ± SD) it was 1.59 ± 1.26 µM; in data set [3] (setting [6]), 1.69 ± 0.47 µM; in data set [3] (setting [8]), 2.02 µM. Moreover, the time of peak concentration (Tmax) (in general, the time from dosing to the highest level) is 20 min and 5 min in data set [3] (setting [4]); 60 min in data set [3] (setting [5]); 12.5 min in data set [3] (plasma, iv, 2 mg/kg, IV, Mean ± SD, read-out: Tmax (converted)); 52.5 min in data set [3] (setting [7]); 45 min in data set [3] (setting [9]). In addition, the “t1/2” value in data set [3] (setting [4]) stood at 53.29 min. Moreover, the “BA (%)” value in data set [3] (Mean ± SD) is 25.25 ± 0.29%; in data set [3] (individual rats, listed as PBT 1033, hydrochloride), 25.45% and 25.04%. In addition, the clearance turned out to be 118 ± 38.7 mL/min/kg in data set [3] (plasma, iv, 2 mg/kg, IV, Mean ± SD) and 91 mL/min/kg in data set [3] (plasma, iv, 2 mg/kg, IV, individual rats). The half-life (as a rule, how long it takes for the measured level to halve) in data set [3] (plasma, iv, 2 mg/kg, Mean ± SD) came to 52.8 ± 0.73 min; in data set [3] (plasma, iv, 2 mg/kg, individual rats), 52.2 min.

With `O=C(NCCc1c[nH]cn1)c1ccc2c(Cl)cc(Cl)c(O)c2n1` [compound 1038, 5,7-Dichloro-8-hydroxyquinoline-2-carboxylic acid [2-(1H-imidazol-4-yl)-ethyl]-amide], the “Test Compound Cytoxicity 1 uM” value in the data set with Neuronal cortical cells stood at 93. The “Test Compound Cytoxicity 10 uM” value in the data set on Neuronal cortical cells was found to be 83. In addition, the “% inhibition Abeta toxicity” value in data set [1] is 19%. Also, in the data set with APP2576 transgenic mouse, the “Insoluble fraction. % change” value was −37%. Also, the “Soluble fraction. % change compared with control.” value with APP2576 transgenic mouse is given as “negligible”. Moreover, in data set [2], the “Uptake Ratio” value was more than 50%. In addition, the Cmax was 8.06 µM and 2.84 µM in data set [3] (IV, individual rats, listed as PBT 1038); 68.5 µM in data set [3] (PO 30 mg/Kg, individual rats, listed as PBT 1038, 30 mg/kg); 5.45 ± 3.7 µM in data set [3] (plasma, iv, Mean ± SD); 63.1 ± 7.57 µM in data set [3] (setting [6]); 57.8 µM in data set [3] (setting [8]). In addition, the “Tmax” value in data set [3] (PO 30 mg/Kg, individual rats) is 45 min; in data set [3] (setting [7]), 45 min; in data set [3] (setting [9]) it was 45 min.

Consider `Cn1cnc(CCNC(=O)c2ccc3c(Cl)cc(Cl)c(O)c3n2)c1` [compound 1050, 5,7-dichloro-8-hydroxyquinoline-2-carboxylic acid [2-(1-methyl-1H-imidazol-4-yl)-ethyl]-amide], for which the “Test Compound Cytoxicity 1 uM” value with Neuronal cortical cells came out at 93. Moreover, the “Test Compound Cytoxicity 10 uM” value with Neuronal cortical cells is 88. Also, the “% inhibition Abeta toxicity” value in data set [1] stood at 6%. The “Uptake Ratio” value in data set [2] is reported as more than 50%. In addition, the highest concentration (Cmax) in data set [3] (IV, individual rats, listed as PBT 1050) is 33.9 µM and 16.9 µM; in data set [3] (setting [10]), 61 µM and 7.03 µM; in data set [3] (plasma, iv, 2 mg/kg, Mean ± SD), 25.4 ± 12.1 µM; in data set [3] (setting [6]) it was 34 ± 38.2 µM. The “Tmax” value in data set [3] (setting [10]) was 45 min and 120 min; in data set [3] (setting [7]), 82.5 min.

Regarding `CCNCc1ccc2c(Cl)cc(Cl)c(O)c2n1.Cl` [compound 1051, 5,7-dichloro-2-ethylaminomethyl-quinolin-8-ol hydrochloride], the “Test Compound Cytoxicity 1 uM” value with Neuronal cortical cells worked out at 87. For the same compound, the “Test Compound Cytoxicity 10 uM” value in the data set on Neuronal cortical cells worked out at 56. For the same compound, the “% inhibition Abeta toxicity” value in data set [1] was 23%. Further, in the data set on APP2576 transgenic mouse, the “Insoluble fraction. % change” value is given as −21%. The “Soluble fraction. % change compared with control.” value in the data set on APP2576 transgenic mouse is “negligible”. In addition, the “Uptake Ratio” value in data set [2] is reported as more than 50%. The “VdB” value in data set [3] (IV, Mean ± SD) was 9.64 ± 0.77 L/kg; in data set [3] (setting [11]), 10.19 L/kg and 9.10 L/kg. Also, the “Cltotal (mL/min/Kg), total plasma clearance” value in data set [3] (setting [11]) turned out to be 135.58 mL/min/kg. The Cmax is 3.03 µM in data set [3] (setting [11]); 3.18 µM and 1.5 µM in data set [3] (setting [12]); 2.99 ± 0.05 µM in data set [3] (plasma, iv, Mean ± SD); 2.96 µM in data set [3] (plasma, iv, individual rats); 2.34 ± 1.18 µM in data set [3] (setting [6]). Besides, the “t1/2” value in data set [3] (setting [11]) turned out to be 46.52 min; in data set [3] (setting [12]), 365.72 min. Besides, the “Tmax” value in data set [3] (setting [12]) is 30 min; in data set [3] (setting [7]), 45 min; in data set [3] (setting [9]), 60 min. In addition, the “BA (%)” value was 27.75 ± 14.43% in data set [3] (Mean ± SD); 37.96% and 17.55% in data set [3] (individual rats, listed as PBT 1051, hydrochloride). Also, the clearance in data set [3] (plasma, iv, 2 mg/Kg, IV, Mean ± SD) was 144 ± 12.5 mL/min/kg; in data set [3] (plasma, iv, 2 mg/Kg, IV, individual rats) it was 153 mL/min/kg. Further, the half-life came out at 46.3 ± 0.32 min in data set [3] (plasma, iv, 2 mg/Kg, Mean ± SD); 46.1 min in data set [3] (plasma, iv, 2 mg/Kg, individual rats); 283 ± 117 min in data set [3] (setting [6]); 200 min in data set [3] (setting [8]).
